Test results reported in a melting point compilation (Tetko et al.; mined from patent text by program, amines drawn as free bases though some values may be those of a salt).

Row | SMILES | melting point [°C]
1 | Cc1cc(=O)oc2cccc(SC(=O)N(C)C)c12 | 129
2 | CNCC(O)c1cccc(F)c1 (stereo not drawn) | 63 to 65
3 | O=C(c1cc(-c2ccncc2)c(N2CCOCC2)s1)c1ccc(Cl)cc1Cl | 180
4 | CSc1nnc(-c2cccs2)n1C | 83 to 85
5 | O=C(O)C1Cc2ccccc2N1S(=O)(=O)c1ccc(-c2ccc(F)cc2F)cc1 (stereo not drawn) | 88 to 92
6 | NC(=S)Nc1cc[nH]n1 | 130 to 132
7 | CCCN(C(=O)C=C(C)C)c1cccc(Br)c1 | 50 to 51
8 | CCOCN1C(C)=C(C(=O)OCC)C(c2cccc([N+](=O)[O-])c2)C(C(=O)OCC)=C1C | 125
9 | CCNc1nc(Cl)c(Br)c(NC2CC2)n1 | 100 to 101
10 | COc1ccc(C2OC(=O)c3cc(OC)c(OC)c(OC)c32)cc1OC (stereo not drawn) | 141 to 142
11 | O=C1C(=O)c2ccc(Br)cc2C2=C1SCC1(CCN(CC(O)Cc3ccccc3)CC1)O2 (stereo not drawn) | 82 to 83
12 | CC(=O)N=c1sccn1CC(=O)c1cccc(NC(C)=O)c1 | 224 to 226
13 | COc1cc(N2CCN(C)CC2)ccc1-c1cnn2c(N)c(-c3cccc(O)c3)cnc12 | 217 to 220
14 | COc1ccc2c(Cc3c(Cl)cncc3Cl)nncc2c1C#CCCCc1ccccc1 | 130 to 132
15 | Brc1ccc2[nH]cc(Cc3cccnc3)c2c1 | 122
16 | N#Cc1c(N2CCc3ccccc3CC2)nc(N)n(N)c1=O | > 200
17 | CC1(C)CC(=O)c2c(nc(Cc3ccc(N)cc3)c3[nH]c4ccccc4c23)C1 | 123 to 124
18 | Cc1cc2c(cc1C)C(N)CC(C)(C)O2 (stereo not drawn) | > 270
19 | O=S(=O)(N=C(O)c1ccc(OCCn2ccnc2)cc1)c1ccccc1 | 250 to 252
20 | Cc1cc(C(O)(C(F)(F)F)C(F)(F)F)cc(C)c1NCCCN | 130 to 133
21 | N#Cc1cccc(C2=Nc3cc(CO)c(C#Cc4ccccc4)cc3NC(=O)C2)c1 | > 255
22 | CC(=O)Oc1coc(-c2cccc(N)c2)cc1=O | 127 to 129
23 | CC#CCOc1cc(/C=C/C(=O)O)ccc1OC(F)F | 206 to 208
24 | O=C1c2ccccc2C(=O)N1C/C=C/COc1ccc(-n2ccnc2)cc1 | 170 to 171
25 | CCCc1nn(C)c2c(=O)[nH]c(-c3ccc(OC)c(OC)c3)nc12 | 210 to 212
26 | Clc1ncc(Br)n2nc(SCc3ccccc3)nc12 | 109 to 110

Row | SMILES | melting point [°C]
27 | COc1ccc(N(CCCC(=O)O)C(=O)CCCN(C(=O)c2ccc(Cl)cc2)c2c(C)cccc2C)cc1 | 119 to 121
28 | CCCCCCNC(=O)c1cnc(Cl)nc1 | 101 to 102
29 | COC(=O)c1c(C(=O)OC)c2sc3ccccc3n2c1C | 143 to 144
30 | CC(=O)OCC1OC(n2cc(C3=C(n4ccnc4)C(=O)N(C)C3=O)c3cccnc32)C(OC(C)=O)C(OC(C)=O)C1OC(C)=O (stereo not drawn) | 88 to 90
31 | CS(=O)(=O)Oc1cnc2cc(C(F)(F)F)ccc2c1O | 220
32 | CCCc1nc(NC)sc1-c1ccncc1 | 150 to 151
33 | CN(C)CCC(=O)Nc1cccc(NC(=O)Nc2ccc(N(CCCl)CCCl)cc2)c1 | 88 to 90
34 | COc1ccc2c3c1CCCC3C(CN1CCN(C)CC1)CC2 (stereo not drawn) | 115 to 116
35 | O=C(NCC(=O)N(c1ccccc1)c1ccccc1)Nc1cccc(Cl)c1Cl | 210
36 | Cc1c(C(=O)C23CC4CC(CC(C4)C2)C3)oc2cc(F)ccc12 | 107 to 109
37 | CNC(=S)Nc1ccccc1CC(=O)OC | 99 to 100
38 | CCCCCCc1ccc(-n2c(-c3ccc(CC(=O)O)cc3)ccc2-c2ccc(CC(=O)O)cc2)cc1 | 129 to 130
39 | Cc1ccc(C)c2c(C=O)c3ccccc3c(C=O)c12 | 158 to 162
40 | CC(C)NS(=O)(=O)c1cc(Br)cc(Br)c1 | 105 to 107
41 | CNc1nc(Cl)nc2c1ncn2C1SC(CO)C(O)C1O (stereo not drawn) | 220 to 222
42 | CSc1cccc(-n2cnc(-c3ccc(F)cc3)c2-c2ccncc2)c1 | 155 to 156
43 | O=C(NC(=O)N1CCOCC1)c1cccc(-c2noc(-c3ccccc3F)n2)c1 | 190 to 194
44 | OCCOc1ccc2ncccc2c1 | 68 to 70
45 | CC(C)(CC(O)(Cn1ccc(=O)c2sccc21)C(F)(F)F)c1cc(S(C)(=O)=O)cc2c1OCC2 (stereo not drawn) | 163 to 165
46 | Cc1ccc(C(=O)Nc2cn(C3CCCCO3)nc2C(=O)NCC(F)(F)F)cn1 (stereo not drawn) | 132 to 133
47 | COC(=O)c1ccc(OC(=O)c2ccccc2)cc1O | 103
48 | C=CCc1c[nH]c2c([N+](=O)[O-])cccc2c1=O | 242
49 | N#CNC(=S)Nc1ccc(F)cc1 | > 270
50 | CC(C)CN1C(=O)C(C)(C)C(=O)Nc2ccc(C=O)cc21 | 208 to 211
51 | CCOC(=O)c1ccc([N+](=O)[O-])cc1F | 70 to 73
52 | CCCCOc1ccc(NC(=O)Nc2ccc(S(N)(=O)=O)cc2)cc1 | 236 to 239

Row | SMILES | melting point [°C]
53 | CS(=O)(=O)c1ccc(C(CC2CCCC2)C(=O)Nc2ccccn2)cc1F (stereo not drawn) | 76 to 79
54 | NC(=NO)c1c(F)cccc1C(F)(F)F | 155 to 157
55 | CC(C)(C)OC(=O)CCc1cccc(-c2nc(=O)c3ccc(C(F)(F)F)cc3s2)n1 | 148 to 149
56 | N=C(N)N(CCCC(C=O)NC(=O)CNC(=O)CCc1ccccc1)C(=O)OCc1ccccc1 (stereo not drawn) | 69 to 74
57 | Cc1cc(Cl)ccc1N1CCCN(CC(C)C)C1=S | 88 to 90
58 | CSc1ncc(C(C)c2cccnc2)c(=O)[nH]1 (stereo not drawn) | 201 to 204
59 | Nc1nc2nc(SCc3ccccc3)ncc2cc1Oc1ccc(F)cc1 | 186 to 192
60 | COc1ccc2cc3c(cc2c1)C(=O)NC3=O | > 250
61 | Cc1oc(-c2ccccc2)nc1CCOc1ccc(C[C@@H](C(=O)O)N2CCN(c3ccccc3)CC2)cc1Br | 220 to 222
62 | CC[C@H](C)C(OCc1ccccc1)[C@H]1[C@H]([N+](=O)[O-])[C@H](c2ccccc2)N[C@@H]1C(=O)NCCCCCC(=O)O (stereo partly drawn) | 105 to 106
63 | CC1(C)C(=O)C(C)(C)c2cc(N)c(N)cc21 | 179 to 180
64 | CC(Cn1cc(Cl)c2ccccc21)N(O)C(N)=O (stereo not drawn) | 168 to 171
65 | CCOC(=O)N1CCN(c2nc(N)ccc2[N+](=O)[O-])CC1 | 132 to 134
66 | Nc1ccc(C(=O)CCCCl)cc1[N+](=O)[O-] | 150
67 | CC(=O)Nc1nnc2c3c(c(N4CCOCC4)nn12)CCCC3 | 147 to 149
68 | CCNC(=O)c1cccc([N+](=O)[O-])c1 | 118 to 120
69 | COCCCNS(=O)(=O)NC(=O)/C(C)=C/c1ccc(OC(C)C)cc1Oc1ncc(C(F)(F)F)cc1Cl | 120 to 121
70 | COc1ccccc1NC(=O)Nc1nc(NC(C)C)nc(N(CCC(=O)O)Cc2ccc(Cl)c(Cl)c2)n1 | 95 to 101
71 | CSc1cccc(C2CC(=O)C=C(O)C2)c1 (stereo not drawn) | 141
72 | CN1CCN(C)c2c(cccc2[N+](=O)[O-])C1=O | 146 to 147
73 | COC(=O)c1cc(C=O)cnc1C(=O)OC | 75 to 77
74 | O=C1CC(c2ccccc2)c2cc(O)ccc2O1 (stereo not drawn) | 138
75 | C=C(C)COc1ccc(C(=O)C=Cc2ccccc2)c(O)c1 | 114 to 115
76 | CCCCC1CCC(CC(=O)c2ccc(-c3ccc(CC(C)CC)cc3F)cc2)CC1 (single isomer, unassigned; (+)) | 71.4 to 72.1
77 | CC(C)N1CC(C(=O)c2c[nH]c(Cc3ccc(F)cc3)n2)=C(O)C1=O | 220
78 | Cc1ccc(-c2csc(-c3ccc4c(c3)C(C)(C)CCC4(C)C)c2)cc1 | 135 to 136

Row | SMILES | melting point [°C]
79 | COCCOCOc1c(C(C)(C)C)cc(-c2nc(Br)no2)cc1C(C)(C)C | 89 to 91
80 | COn1c(C#N)c(Br)c(Br)c1-c1ccc(Cl)c(Cl)c1 | 145 to 150
81 | COc1c(C#Cc2ccc(NS(C)(=O)=O)cc2C)cc(N2CCC(=O)NC2=O)cc1C(C)(C)C | > 280
82 | CC1(C)Oc2ccc(C#N)cc2[C@@H](NC(=O)Nc2cccc(-c3nnn[nH]3)c2)[C@@H]1O | 204 to 208
83 | CCOC(=O)c1cc(NC(=O)C(N)Cc2ccccc2)c[nH]1 (stereo not drawn) | 139 to 142
84 | Nc1nnc2ccc(-c3ccco3)nn12 | 203 to 206
85 | CON(Cc1ccc(F)c(C)c1)C(=O)C1=C(O)C(=O)N(C)C1 | 160 to 164
86 | Cc1nc(N)c(C#N)c(N2CCc3ccccc3CC2)n1 | > 200
87 | O=C(NNS(=O)(=O)c1ccccc1)c1ccnc2ccccc12 | 153 to 156
88 | N#CCCN1CCC(c2noc3cc(F)ccc23)CC1 | 100 to 101
89 | NC(=O)c1nc(-c2cccc(O)c2)nc2c1[nH]c(=O)n2[C@H]1CC[C@H](O)CC1 | 355 to 357
90 | Cc1cccc2cc3c(=O)n(Cc4ccccn4)cc(C(=O)NCCN(C)C)c3nc12 | 183 to 184
91 | CC(=O)c1nc(N)nc(N)c1-c1ccc(Cl)cc1 | 206 to 208
92 | COC(=O)COc1cccc(CNC(=O)C2Cc3ccccc3N2S(=O)(=O)c2ccc(-c3cccc(C(F)(F)F)c3)cc2)c1 (stereo not drawn) | 50
93 | CC1CCCN1c1cc(F)cc(C(=O)Nc2ccc(OCCN3CCOCC3)c3ccccc23)c1 (stereo not drawn) | 108 to 111
94 | CN1CCN(c2ccc(NC(=O)C3(C)CC3)cc2C(F)(F)F)C1=O | 90 to 91
95 | CC(C)Oc1ccc(Cc2ccc(N)cc2)cc1 | 92 to 93
96 | CCc1nc2nc3cc(Cl)ccc3nc2n1C(=O)C=C(C)C | 170 to 172
97 | CC(Oc1ccc(F)cc1)c1ccnn2cnnc12 (stereo not drawn) | 103 to 104
98 | COCC(=O)N1CCN(CCc2ccc(-c3cccc(N)n3)cc2)CC1 | 148 to 150
99 | CC(=O)/C=C(\C)c1ccc(-c2ccccc2)c(Cl)c1 | 66 to 67
100 | Nc1nc2ccccc2c2c1ncn2CCOCc1ccccn1 | 196 to 198
101 | Cn1ncc2c1-c1c(Oc3ccc(OCc4ccc(Cl)cc4)cc3)sc(C(N)=O)c1CC2 | 216 to 217
102 | O=[N+]([O-])c1cccc(-c2ccnc3c(-c4ccsc4)cnn23)c1 | 148 to 150
103 | Nc1ncc(Sc2ccc(F)cc2F)s1 | 116 to 117
